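Following 48 hours of exposure in 96-well plates, responses at five concentrations were used to interpolate endpoints linearly. The concentration for 50% growth inhibition is given as GI50.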 Activity calls are given as the source filed them. Rule as the data show it: active = GI50 up to about 1.1 µM and inactive = higher.
Legend:
Assay in all cases: NCI anticancer screen, dose series, 48 h
EKVX = system: EKVX
HCT-116 = system: HCT-116
HCT-15 = system: HCT-15
HT-29 = system: HT-29
IGROV-1 = system: IGROV-1
KM12 = system: KM12
LOX IMVI = system: LOX IMVI
MCF7 = system: MCF7
MOLT-4 = system: MOLT-4
Malme-3M = system: Malme-3M
NCI-H23 = system: NCI-H23
NCI-H460 = system: NCI-H460
NCI/ADR-RES = system: NCI/ADR-RES
OVCAR-3 = system: OVCAR-3
RPMI-8226 = system: RPMI-8226
SF-539 = system: SF-539
SK-MEL-2 = system: SK-MEL-2
SK-MEL-5 = system: SK-MEL-5
TK-10 = system: TK-10
UACC-62 = system: UACC-62

Structure (SMILES) | GI50 (EKVX) | GI50 (HCT-116) | GI50 (HCT-15) [µM] | GI50 (HT-29) | GI50 (IGROV-1) | GI50 (KM12) | GI50 (LOX IMVI) | GI50 (MCF7) | GI50 (MOLT-4) | GI50 (Malme-3M) | GI50 (NCI-H23) | GI50 (NCI-H460) | GI50 (NCI/ADR-RES) | GI50 (OVCAR-3) | GI50 (RPMI-8226) | GI50 (SF-539) | GI50 (SK-MEL-2) | GI50 (SK-MEL-5) | GI50 (TK-10) | GI50 (UACC-62)
Oc1ccc(NCn2c(=S)sc3ccccc32)cc1 | > 100 µM (inactive) | > 100 µM (inactive) | > 100 | > 100 µM (inactive) | 33.2 µM (inactive) | > 100 µM (inactive) | > 100 µM (inactive) | 92.9 µM (inactive) | 34.2 µM (inactive) | > 100 µM (inactive) | > 100 µM (inactive) | > 100 µM (inactive) | > 100 µM (inactive) | 97.9 µM (inactive) | 26.2 µM (inactive) | > 100 µM (inactive) | > 100 µM (inactive) | > 100 µM (inactive) | > 100 µM (inactive) | 84.5 µM (inactive)
C1CC2=C(C1)[Se]C(=C1Sc3nsnc3S1)[Se]2 | > 100 µM (inactive) | > 100 µM (inactive) | 48.3 | > 100 µM (inactive) | > 100 µM (inactive) | > 100 µM (inactive) | > 100 µM (inactive) | > 100 µM (inactive) | > 100 µM (inactive) | 71.3 µM (inactive) | > 100 µM (inactive) | > 100 µM (inactive) | > 100 µM (inactive) | > 100 µM (inactive) | > 100 µM (inactive) | > 100 µM (inactive) | > 100 µM (inactive) | > 100 µM (inactive) | > 100 µM (inactive) | > 100 µM (inactive)
COc1nc2cccc(C(O)c3ccccc3)c2nc1-c1ccccc1 (stereo not given) | 4.08 µM (inactive) | 3.97 µM (inactive) | 4.43 | 5.18 µM (inactive) | 5.09 µM (inactive) | 6.04 µM (inactive) | 6.24 µM (inactive) | 4.47 µM (inactive) | 5.11 µM (inactive) | 17 µM (inactive) | 3.27 µM (inactive) | 4.14 µM (inactive) | 3.85 µM (inactive) | 3.91 µM (inactive) | 2.94 µM (inactive) | 2.88 µM (inactive) | 9.95 µM (inactive) | 3.56 µM (inactive) | 22.3 µM (inactive) | 5.92 µM (inactive)
NNC(=O)CCc1ccc2ccc3ccccc3c2c1 | 16.4 µM (inactive) | > 100 µM (inactive) | 82 | > 100 µM (inactive) | > 100 µM (inactive) | > 100 µM (inactive) | 98.9 µM (inactive) | > 100 µM (inactive) | 63.5 µM (inactive) | 79.1 µM (inactive) | > 100 µM (inactive) | > 100 µM (inactive) | 89.1 µM (inactive) | 29.9 µM (inactive) | 72.1 µM (inactive) | 54.6 µM (inactive) | > 100 µM (inactive) | 92.3 µM (inactive) | > 100 µM (inactive) | > 100 µM (inactive)
